This is an account of results in patent US8580815B2, “Derivatives of azaindoles as inhibitors of protein kinases ABL and SRC” (Oribase Pharma, priority 2009, dated 2013).

Each structure is given as a SMILES string. “And” between values parts separate entries of the source, which are not always exact repeats. Identical values can stand only once. Like-named read-outs stand apart in the source and are kept apart here.

One experiment concerns the target Src kinase (Homo sapiens (Human), UniProt P12931). The experiment can be described thus: Reaction Biology Corp. kinase assay, Src. The following applies: compounds tested by Reaction Biology Corp.; for IC50: IC50 on kinase Src (category), ATP at 10 μM; for inhibition at 10 µM: read-out: % inhibition of kinase activity, Src (category), 10 μM.
In a further experiment the target is Abl WT (Homo sapiens (Human), UniProt P00519). The experiment can be described thus: Reaction Biology Corp. kinase assay, Abl WT. The following applies: compounds tested by Reaction Biology Corp.; for inhibition at 10 µM: read-out: % inhibition of kinase activity, Abl WT (category); for IC50: ATP at 10 μM, read-out: IC50 on kinase Abl WT (category). In kind it is biochemical. Here is the method:
(§1) 4 compounds were tested for their capacity to inhibit various mutated kinases AbI (American company, Reaction Biology Corp.).

Experiment [1] deals with K562 cells expressing kinase Bcr-AbI. As to the kind of experiment: Inhibition of cellular proliferation (MTT), K562 cells. Format: cell-based, human. The following applies: Homo sapiens. The method, then:
Cellular tests were carried out at the Montpellier Cancer Research Centre. The inhibition of proliferation by our compounds was analysed on 2 cell lines (U937 and K562) by calculating the IC50, testing 6 concentrations in triplicate for each of the compounds and for each line.
Cells in exponential phase were seeded in 96-well plates at a concentration of 10^4 cells/100 μL/well. The final concentrations of compound in the well in contact with the cells were 0.1; 0.3; 0.9; 3.3; 10; 30; 90 μM. […]

The next experiment concerns the target Abl T315I (Homo sapiens (Human), UniProt P00519, T315I). The experiment can be described thus: Reaction Biology Corp. kinase assay, mutated Abl T315I. Format: biochemical. Conditions: Reaction Biology Corp.; for inhibition at 10 µM: read-out: % inhibition of kinase activity, Abl T315I (category); for IC50: ATP at 10 μM, read-out: IC50 on kinase Abl T315I (category). Here is the method:
as §1

The mark [2] stands for this setting: K562, 24 h, 24 h incubation, read-out: IC50 at 24 h on K562 (category).
[3] abbreviates: K562, 72 h, read-out: IC50 at 72 h on K562 (category), 72 h incubation.
The mark [4] stands for this setting: K562, incubation time not stated (24 h and/or 72 h), read-out: IC50 for the K562 Bcr-AbI kinase (category).

Src kinase, sequence (P12931 whole entry, looked up): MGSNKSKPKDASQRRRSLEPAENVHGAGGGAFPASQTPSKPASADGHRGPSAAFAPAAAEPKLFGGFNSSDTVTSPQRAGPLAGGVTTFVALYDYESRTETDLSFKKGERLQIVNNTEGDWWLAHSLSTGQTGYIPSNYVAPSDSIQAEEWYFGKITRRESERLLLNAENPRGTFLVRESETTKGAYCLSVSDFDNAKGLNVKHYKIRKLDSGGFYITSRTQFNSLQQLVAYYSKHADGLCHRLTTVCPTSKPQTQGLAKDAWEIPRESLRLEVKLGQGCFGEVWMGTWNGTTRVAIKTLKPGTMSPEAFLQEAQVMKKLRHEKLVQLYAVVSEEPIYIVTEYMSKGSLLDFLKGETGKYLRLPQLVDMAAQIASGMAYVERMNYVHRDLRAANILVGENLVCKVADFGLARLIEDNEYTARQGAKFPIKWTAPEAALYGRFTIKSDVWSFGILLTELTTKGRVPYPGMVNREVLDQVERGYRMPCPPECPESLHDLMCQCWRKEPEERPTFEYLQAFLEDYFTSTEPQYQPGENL

For the compound `COC(=O)c1cc2cc(NCc3ccccc3C)cnc2[nH]1` [ND0090], the IC50 (usually the concentration at which inhibition is half-maximal) against Src kinase is 0.001 to 0.1 µM; at Abl WT it was 0.001 to 0.1 µM; in experiment [1] (setting [2]), 1 to 10 µM; in experiment [1] (setting [3]) it was 0.01 to 1 µM; in experiment [1] (setting [4]), 0.01 µM. Further, the inhibition (usually the change of the read-out against control, counted positive when it falls) at 10 µM on Src kinase is more than 50%; on Abl WT, more than 50%; at Abl T315I, 10 to 50%.

For `COC(=O)c1cc2cc(NCc3cc[nH]n3)cnc2[nH]1` [ND0098], the IC50 on Src kinase and at Abl WT was 0.1 to 10 µM in each case. Moreover, the inhibition at 10 µM on Src kinase is more than 50%; on Abl WT, more than 50%; on Abl T315I, less than 10%.

As to `COC(=O)c1cc2cc(NCc3ccccc3OC(F)(F)F)cnc2[nH]1` [ND0092], the inhibition at 10 µM is less than 10% at Src kinase, 10 to 50% on Abl WT and less than 10% on Abl T315I.

Turning to `COC(=O)c1cc2cc(NC(=O)c3c(Cl)cccc3Cl)cnc2[nH]1` [ND0072, Methyl 5-(2,6-dichlorobenzamido)-1H-pyrrolo[2,3-b]pyridine-2-carboxylate], the IC50 was 0.001 to 0.1 µM against Src kinase, 0.001 to 0.1 µM at Abl WT, more than 10 µM in experiment [1] (setting [2]) and 0.01 to 1 µM in experiment [1] (setting [3]). In addition, the inhibition at 10 µM at Src kinase is more than 50%; at Abl WT, more than 50%; at Abl T315I, less than 10%.

As for `COC(=O)c1cc2cc(NC(=O)c3ccc4[nH]ccc4c3)cnc2[nH]1` [ND0082], the figures for the inhibition at 10 µM on Src kinase, on Abl WT and on Abl T315I were less than 10%, more than 50% and less than 10%, respectively. The IC50 on Abl WT was in the range of 0.1 to 10 µM.

Consider `COC(=O)c1cc2cc(NC(=O)c3cc(C)n[nH]3)cnc2[nH]1` [ND0085], for which the inhibition at 10 µM on Src kinase is 10 to 50%; at Abl WT, more than 50%; on Abl T315I, less than 10%. The IC50 on Abl WT was 0.1 to 10 µM.

As for `COC(=O)c1cc2cc(NCc3cc(NC(=O)c4ccc(CN5CCN(C)CC5)cc4)ccc3C)cnc2[nH]1` [ND0118, methyl 5-(5-(4-((4-methylpiperazin-1-yl)methyl)benzamido)-2-methyl-benzylamino)-1H-pyrrolo[2,3-b]pyridine-2-carboxylate], the IC50 against Src kinase was less than 0.001 µM; on Abl WT, less than 0.001 µM; in experiment [1] (setting [2]) it was 1 to 10 µM; in experiment [1] (setting [3]), less than 0.01 µM; at Abl T315I, 0.1 to 10 µM. The inhibition at 10 µM at Src kinase, at Abl WT and on Abl T315I was more than 50% throughout.

`COC(=O)c1cc2cc(NC(=O)c3cc(NC(=O)c4ccc(CN5CCC(N(C)C)C5)c(C(F)(F)F)c4)ccc3C)cnc2[nH]1` (stereo not drawn) [ND0119, methyl 5-(5-(4-((3-(dimethylamino)pyrrolidin-1-yl)methyl)-3-(trifluoro-methyl)benzamido)-2-methylbenzamido)-1H-pyrrolo[2,3-b]pyridine-2-carboxylate]: the concentration for half-maximal inhibition (IC50) against Src kinase was 0.001 to 0.1 µM; on Abl WT, less than 0.001 µM; in experiment [1] (setting [2]) it was 0.01 µM; in experiment [1] (setting [3]), less than 0.01 µM; in experiment [1] (setting [4]) it was 0.01 µM; at Abl T315I, 0.1 to 10 µM. In addition, the inhibition at 10 µM at Src kinase, at Abl WT and on Abl T315I was more than 50% each time.

Consider `COC(=O)c1cc2cc(NCc3c(Cl)cccc3Cl)cnc2[nH]1` [ND0087], for which the IC50 on Src kinase is 0.001 to 0.1 µM; at Abl WT it was 0.001 to 0.1 µM; in experiment [1] (setting [2]) it was 1 to 10 µM; in experiment [1] (setting [3]), 0.01 to 1 µM; in experiment [1] (setting [4]) it was 0.01 µM. Moreover, the inhibition at 10 µM was more than 50% on Src kinase, more than 50% at Abl WT and 10 to 50% on Abl T315I.

As for `COC(=O)c1cc2cc(NC(=O)c3cccc(S(=O)(=O)NCc4ccco4)c3)cnc2[nH]1` [ND0086], the inhibition at 10 µM on Src kinase is less than 10%; on Abl WT, 10 to 50%; on Abl T315I, less than 10%.

As for `COC(=O)c1cc2cc(NC(=O)c3ccccc3OC(F)(F)F)cnc2[nH]1` [ND0078, Methyl 5-(2-(trifluoromethoxy)benzamido)-1H-pyrrolo[2,3-b]pyridine-2-carboxylate], the inhibition at 10 µM is 10 to 50% on Src kinase, 10 to 50% on Abl WT and less than 10% on Abl T315I.

As to `COC(=O)c1cc2cc(NCc3ncc[nH]3)cnc2[nH]1` [ND0095], the inhibition at 10 µM was 10 to 50% on Src kinase, 10 to 50% on Abl WT and less than 10% at Abl T315I.

With `COC(=O)c1cc2cc(Nc3ccc(I)cc3)cnc2[nH]1` [ND0108], the inhibition at 10 µM on Src kinase, at Abl WT and at Abl T315I was 10 to 50% in each case.

In the case of `COC(=O)c1cc2cc(NCc3ccccc3C(F)(F)F)cnc2[nH]1` [ND0091], the IC50 against Src kinase and on Abl WT was 0.1 to 10 µM each time. Moreover, the inhibition at 10 µM on Src kinase is more than 50%; on Abl WT, more than 50%; on Abl T315I, less than 10%.

Consider `COC(=O)c1cc2cc(NC(=O)c3cccs3)cnc2[nH]1` [ND0079, Methyl 5-(thiophene-2-carboxamido)-1H-pyrrolo[2,3-b]pyridine-2-carboxylate], for which the inhibition at 10 µM at Src kinase was 10 to 50%; on Abl WT it was 10 to 50%; on Abl T315I it was less than 10%.

As to `COC(=O)c1cc2cc(NCc3cccs3)cnc2[nH]1` [ND0093], the IC50 against Src kinase and on Abl WT was 0.1 to 10 µM in each case. Moreover, the inhibition at 10 µM at Src kinase was more than 50%; at Abl WT it was more than 50%; at Abl T315I, 10 to 50%.

Consider `COC(=O)c1cc2cc(Nc3cccc(Br)c3)cnc2[nH]1` [ND0104], for which the inhibition at 10 µM on Src kinase was less than 10%.

As for `COC(=O)c1cc2cc(Nc3cccc(OC)c3)cnc2[nH]1` [ND0102], on Src kinase, the inhibition at 10 µM is 10 to 50%.

Regarding `COC(=O)c1cc2cc(NC(=O)c3ccccc3C(F)(F)F)cnc2[nH]1` [ND0077, Methyl 5-(2-(trifluoromethyl)benzamido)-1H-pyrrolo[2,3-b]pyridine-2-carboxylate], the IC50 was 0.001 to 0.1 µM and 0.1 to 10 µM against Src kinase; 0.001 to 0.1 µM at Abl WT. Also, the values for the inhibition at 10 µM at Src kinase, at Abl WT and at Abl T315I were more than 50%, more than 50% and less than 10%, respectively.

Take `COC(=O)c1cc2cc(NC(=O)c3ccccc3OC)cnc2[nH]1` [ND0073, Methyl 5-(2-methoxybenzamido)-1H-pyrrolo[2,3-b]pyridine-2-carboxylate]: the inhibition at 10 µM at Src kinase is 10 to 50%; on Abl WT, 10 to 50%; on Abl T315I it was less than 10%.

Turning to `COC(=O)c1cc2cc(Nc3ccncc3)cnc2[nH]1` [ND0058], the results for the inhibition at 10 µM on Src kinase, on Abl WT and on Abl T315I were 10 to 50%, 10 to 50% and less than 10%, respectively.

Take `COC(=O)c1cc2cc(NCc3ccc(S(N)(=O)=O)cc3)cnc2[nH]1` [ND0101]: the figures for the inhibition at 10 µM on Src kinase, at Abl WT and on Abl T315I were 10 to 50%, more than 50% and less than 10%, respectively.

For the compound `COC(=O)c1cc2cc(NCc3ccccc3Br)cnc2[nH]1` [ND0057], the IC50 against Src kinase and at Abl WT was 0.1 to 10 µM each time. For the same compound, the figures for the inhibition at 10 µM on Src kinase, on Abl WT and on Abl T315I were more than 50%, more than 50% and less than 10%, respectively.

For `COC(=O)c1cc2cc(NCc3nccs3)cnc2[nH]1` [ND0094], the IC50 on Src kinase and on Abl WT was 0.1 to 10 µM throughout. The inhibition at 10 µM at Src kinase is more than 50%; at Abl WT, more than 50%; on Abl T315I it was 10 to 50%.

For `COC(=O)c1cc2cc(Nc3ccc(Br)cc3)cnc2[nH]1` [ND0107], the inhibition at 10 µM at Src kinase fell in the range of 10 to 50%.

As to `COC(=O)c1cc2cc(NCc3ccccc3OC)cnc2[nH]1` [ND0088], the IC50 against Src kinase and on Abl WT was 0.1 to 10 µM in each case. Moreover, the inhibition at 10 µM at Src kinase was more than 50%; on Abl WT it was more than 50%; at Abl T315I it was less than 10%.

With `COC(=O)c1cc2cc(Nc3ccc(OC)cc3)cnc2[nH]1` [ND0109], the inhibition at 10 µM on Src kinase was 10 to 50%.

In the case of `COC(=O)c1cc2cc(Nc3cccc(I)c3)cnc2[nH]1` [ND0103], the inhibition at 10 µM is 10 to 50% at Src kinase, 10 to 50% at Abl WT and less than 10% at Abl T315I.

For the compound `COC(=O)c1cc2cc(NC(=O)c3cccc(Br)c3)cnc2[nH]1` [ND0075, Methyl 5-(3-bromobenzamido)-1H-pyrrolo[2,3-b]pyridine-2-carboxylate], the inhibition at 10 µM at Src kinase, at Abl WT and on Abl T315I was 10 to 50% in each case.
